Assay results: PubChem BioAssay (NCI)
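How tested: cells in 96-well plates exposed to compound for 48 hours at five concentrations. GI50: concentration for 50% inhibition of growth. TGI is the concentration that stops growth completely.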

Tests used:
Assay in all cases: DTP human tumour cell line panel, 48 h
[1] = system: RPMI-8226 leukemia
[2] = system: COLO 205 colon
[3] = system: NCI-H522 lung
[4] = system: SW-620 colon
[5] = system: SR leukemia
[6] = system: CAKI-1 renal
[7] = system: U251 CNS
[8] = system: BT-549 breast
[9] = system: RXF 393 renal
[10] = system: DU-145 prostate
[11] = system: MCF7 breast
[12] = system: OVCAR-8 ovarian
[13] = system: HCT-15 colon
[14] = system: LOX IMVI melanoma
[15] = system: KM12 colon
[16] = system: MDA-MB-231 breast
[17] = system: MALME-3M melanoma
[18] = system: HCT-116 colon
[19] = system: MOLT-4 leukemia
[20] = system: HOP-62 NSCLC
[21] = system: HS 578T breast
[22] = system: UACC-257 melanoma
[23] = system: NCI-H23 lung
[24] = system: SK-OV-3 ovarian
[25] = system: SF-268 CNS
[26] = system: IGROV1 ovarian
[27] = system: UO-31 renal
[28] = system: OVCAR-5 ovarian
[29] = system: HCC-2998 colon
[30] = system: ACHN renal
[31] = system: SK-MEL-28 melanoma
[32] = system: TK-10 renal
[33] = system: OVCAR-3 ovarian
[34] = system: NCI-H226 lung
[35] = system: T-47D breast
[36] = system: SK-MEL-5 melanoma
[37] = system: A549 NSCLC
[38] = system: SF-295 CNS
[39] = system: A498 renal
[40] = system: SF-539 CNS
[41] = system: NCI-H460 lung
[42] = system: HOP-92 NSCLC
[43] = system: PC-3 prostate
[44] = system: HT29 colon
[45] = system: K-562 leukemia
[46] = system: SNB-19 CNS
[47] = system: MDA-MB-435
[48] = system: SK-MEL-2 melanoma
[49] = system: NCI/ADR-RES ovarian
[50] = system: SN12C renal
[51] = system: 786-0 renal
[52] = system: EKVX NSCLC
[53] = system: HL-60(TB) leukemia
[54] = system: UACC-62 melanoma
[55] = system: CCRF-CEM leukemia
[56] = system: SNB-75 CNS
[57] = system: M14 melanoma
[58] = system: OVCAR-4 ovarian

CSc1ccc(/C(=N/N=C(N)N)c2ccc(F)cc2)cc1
GI50 [1]: 0.468 µM | TGI [1]: 3.16 µM | GI50 [2]: 0.415 µM | TGI [2]: 1.77 µM | GI50 [3]: 0.392 µM | TGI [3]: 11.7 µM | GI50 [4]: 0.457 µM | TGI [4]: 9.76 µM | GI50 [5]: 0.36 µM | TGI [5]: 1.8 µM | GI50 [6]: 0.536 µM | TGI [6]: 4.82 µM | GI50 [7]: 0.415 µM | TGI [7]: 7.13 µM | GI50 [8]: 5.6 µM | TGI [8]: 17.1 µM | GI50 [9]: 0.189 µM | TGI [9]: 0.708 µM | GI50 [10]: 0.415 µM | TGI [10]: 3.84 µM | GI50 [11]: 0.358 µM | TGI [11]: 3.69 µM | GI50 [12]: 1.29 µM | TGI [12]: 14.9 µM | GI50 [13]: 0.341 µM | TGI [13]: 9.85 µM | GI50 [14]: 0.324 µM | TGI [14]: 1.55 µM | GI50 [15]: 0.423 µM | TGI [15]: 11.7 µM | GI50 [16]: 0.807 µM | TGI [16]: 10 µM | GI50 [17]: 1.01 µM | TGI [17]: 3.25 µM | GI50 [18]: 0.346 µM | TGI [18]: 4.58 µM | GI50 [19]: 0.533 µM | TGI [19]: 10.9 µM | GI50 [20]: 0.755 µM | TGI [20]: 9.2 µM | GI50 [21]: 0.872 µM | TGI [21]: 10.5 µM | GI50 [22]: 1.46 µM | TGI [22]: 11.2 µM | GI50 [23]: 0.328 µM | TGI [23]: 3.87 µM | GI50 [24]: 0.78 µM | TGI [24]: 15.5 µM | GI50 [25]: 0.787 µM | TGI [25]: 11.6 µM | GI50 [26]: 0.421 µM | TGI [26]: 3.47 µM | GI50 [27]: 0.856 µM | TGI [27]: 4.45 µM | GI50 [28]: 0.651 µM | TGI [28]: 12.7 µM | GI50 [29]: 0.314 µM | TGI [29]: 1.18 µM | GI50 [30]: 0.724 µM | TGI [30]: 10.5 µM | GI50 [31]: 1.41 µM | TGI [31]: 11.6 µM | GI50 [32]: 2.92 µM | TGI [32]: 17.2 µM | GI50 [33]: 0.406 µM | TGI [33]: 9.68 µM | GI50 [34]: 1.85 µM | TGI [34]: 14.7 µM | GI50 [35]: 0.56 µM | TGI [35]: 11.7 µM | GI50 [36]: 0.393 µM | TGI [36]: 1.49 µM | GI50 [37]: 0.48 µM | TGI [37]: 10.6 µM | GI50 [38]: 0.304 µM | TGI [38]: 10.5 µM | GI50 [39]: 0.39 µM | TGI [39]: 2.96 µM | GI50 [40]: 0.367 µM | TGI [40]: 1.65 µM | GI50 [41]: 0.367 µM | TGI [41]: 3.4 µM | GI50 [42]: 0.797 µM | TGI [42]: 6.11 µM | GI50 [43]: 0.466 µM | TGI [43]: 11.4 µM | GI50 [44]: 0.35 µM | TGI [44]: 5.47 µM | GI50 [45]: 0.336 µM | TGI [45]: 6.52 µM | GI50 [46]: 0.424 µM | TGI [46]: 12.5 µM | GI50 [47]: 0.23 µM | TGI [47]: 0.551 µM | GI50 [48]: 2.67 µM | TGI [48]: 17.5 µM | GI50 [49]: 1.66 µM | TGI [49]: 7.25 µM | GI50 [50]: 0.672 µM | TGI [50]: 10 µM | GI50 [51]: 0.802 µM | TGI [51]: 12.5 µM | GI50 [52]: 0.6 µM | TGI [52]: 13.3 µM | GI50 [53]: 0.273 µM | TGI [53]: 0.873 µM | GI50 [54]: 0.417 µM | TGI [54]: 7.3 µM | GI50 [55]: 0.414 µM | TGI [55]: 15.7 µM | GI50 [56]: 0.342 µM | TGI [56]: 5.56 µM | GI50 [57]: 0.308 µM | TGI [57]: 1.1 µM | GI50 [58]: 0.982 µM | TGI [58]: 15.6 µM
